In PubChem BioAssay (NCI):
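Tested at 5 concentrations; 48 h exposure; 96-well plates; endpoints linearly interpolated, else capped at highest concentration. GI50 = concentration required for 50% inhibition of growth. TGI: concentration producing complete growth inhibition.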

Columns and labels:
Test in all cases: NCI tumour cell line growth inhibition, 48 h
[1] = test system: DU-145 prostate
[2] = test system: T-47D breast
[3] = test system: MDA-MB-231 breast
[4] = test system: PC-3 prostate
[5] = test system: HS 578T breast
[6] = test system: BT-549 breast
[7] = test system: MCF7 breast
[8] = test system: LXFL 529 NSCLC
[9] = test system: RXF-631 renal
[10] = test system: HOP-18 NSCLC
[11] = test system: XF 498 CNS
[12] = test system: SN12K1 renal
[13] = test system: P388 leukemia
[14] = test system: P388/ADR leukemia

`CC(C)(C)C(=O)C(C(c1ccccc1)N1CCOCC1)N1CCOCC1` (centres undefined) gave a TGI [1] of over 100 µM, a TGI [2] of over 100 µM and a TGI [3] of over 100 µM. The TGI [4] was over 100 µM, the TGI [5] was over 100 µM and the TGI [6] was over 100 µM.

Compound `CC(=O)Oc1ccccc1C(=O)O` has a TGI [7] of over 100 µM, a TGI [1] of over 100 µM and a TGI [2] of over 100 µM. The TGI [4] was over 100 µM and the TGI [6] was over 100 µM.

`Cn1c(-c2ccc(/C=N\N3CCN(/N=C/c4ccc(-c5c[n+]6ccsc6n5C)cc4)CC3)cc2)c[n+]2ccsc12` gave a TGI [7] of over 100 µM, a TGI [1] of over 100 µM and a TGI [2] of 53.8 µM. The TGI [3] was 78.5 µM, the TGI [4] was over 100 µM and the TGI [5] was 80.8 µM. The TGI [6] was 90.3 µM.

In the case of `Cc1ccc(-c2csc(=Nc3c(C)n(C)n(-c4ccccc4)c3=O)n2CCO)cc1`, the TGI [7] is reported as over 100 µM, the TGI [3] is reported as over 100 µM and the TGI [4] is reported as over 100 µM. It also gave a TGI [6] of over 100 µM.

Compound `CCO[C@]12C[C@H](OC)[C@@]3(O)CC(C1[C@H]3O)C13C4C2[C@H](OC)C1[C@](COC)(CN4CC)[C@H](O)C[C@@H]3OC` (some centres undefined) has a TGI [8] of over 100 µM.

Compound `COc1cc2c3c(n(CCCNCCCNCCCn4c5c(c6ccccc6c4=O)C(=O)c4ccccc4-5)c(=O)c2cc1OC)-c1cc2c(cc1C3=O)OCO2` has a GI50 [1] of under 0.01 µM, a TGI [1] of 0.213 µM and a GI50 [6] of under 0.01 µM. For the same compound, the TGI [6] was 1.1 µM.

Work on `Clc1c(Cl)c2c(Cl)c(Cl)c1C[P+](c1ccccc1)(c1ccccc1)CC[P+](c1ccccc1)(c1ccccc1)Cc1c(Cl)c(Cl)c(c(Cl)c1Cl)C[P+](c1ccccc1)(c1ccccc1)CC[P+](c1ccccc1)(c1ccccc1)C2` yielded a TGI [8] of 8.12 µM, a TGI [9] of 23.7 µM and a TGI [10] of 20.6 µM.

Work on `CC(C)[C@](O)(C(=O)OCC1CC[N+]2([O-])CC[C@@H](O)C12)[C@H](C)O` (some centres undefined) yielded a TGI [11] of over 375 µM, a TGI [7] of over 375 µM and a TGI [12] of over 375 µM. For the same compound, the TGI [10] was over 375 µM, the TGI [13] was over 375 µM and the TGI [14] was over 375 µM.

Compound `CCCCN1C(=O)NC(Cc2ccccc2)C1=O` (centres undefined) has a TGI [8] of over 100 µM, a TGI [11] of over 100 µM and a TGI [10] of over 100 µM.

In the case of `CC#C[I+]c1ccccc1`, the TGI [8] is reported as 27.1 µM, the TGI [11] is reported as 33.5 µM and the TGI [9] is reported as over 100 µM. The TGI [10] was 34.4 µM.

`OCCN(CCO)c1ccc2c(c1)Cc1ccccc1-2` gave a TGI [7] of 60.5 µM, a TGI [1] of over 100 µM and a TGI [2] of 57.8 µM. For the same compound, the TGI [3] was over 100 µM, the TGI [4] was over 100 µM and the TGI [5] was over 100 µM.

`CCCCCCCCCCCCCCCCOCC(COP(=O)([O-])OCC[N+](C)(C)C)OCCCCCCCCCCCCCCCC` (centres undefined) gave a TGI [11] of over 100 µM, a TGI [12] of over 100 µM and a TGI [10] of over 100 µM. It also gave a TGI [13] of over 100 µM and a TGI [14] of over 100 µM.
